In patent US11325938B2, “CD73 inhibitors” (ORIC Pharmaceuticals, Inc., priority 2018, dated 2022):

Each compound was assayed against CD73 (Homo sapiens (Human), UniProt P21589) (assay: Biochemical assay: inhibition of CD73 activity (AMP hydrolysis, Malachite Green readout)). Details: CD73 0.3208 nM, AMP 15 μM, 25 mM Tris-HCl pH 7.4, RT, absorbance 620 nm.
Outline: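 Phosphate from AMP hydrolysis (15 μM AMP, 10 min, RT) was detected by Malachite Green absorbance to give IC50s. Enzyme at 320 pM was first exposed 15 min to compounds, dosed from 100 μM in ½-log steps, in Tris pH 7.4 buffer with MgCl2, Brij-35 and BSA.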

Sequence of CD73 (P21589 27-574): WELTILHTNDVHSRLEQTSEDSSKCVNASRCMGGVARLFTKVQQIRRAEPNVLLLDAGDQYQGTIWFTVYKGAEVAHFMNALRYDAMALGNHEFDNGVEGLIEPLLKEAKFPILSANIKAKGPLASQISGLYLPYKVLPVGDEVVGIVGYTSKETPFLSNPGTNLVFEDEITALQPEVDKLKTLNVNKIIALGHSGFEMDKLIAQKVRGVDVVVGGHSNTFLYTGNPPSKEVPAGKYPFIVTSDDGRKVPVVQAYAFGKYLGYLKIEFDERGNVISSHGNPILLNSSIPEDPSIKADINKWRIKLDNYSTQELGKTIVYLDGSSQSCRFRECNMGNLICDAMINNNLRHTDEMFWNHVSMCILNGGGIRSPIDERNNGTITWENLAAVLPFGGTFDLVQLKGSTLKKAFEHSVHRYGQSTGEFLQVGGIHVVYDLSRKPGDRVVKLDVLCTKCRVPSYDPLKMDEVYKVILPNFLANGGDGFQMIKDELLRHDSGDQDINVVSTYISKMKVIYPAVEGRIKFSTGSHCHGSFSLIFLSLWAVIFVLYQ

| SMILES | IC50 |
| --- | --- |
| COC[C@](C)(OC[C@H]1O[C@@H](n2ncc3c(NC4CCCC4)nc(Cl)nc32)[C@H](O)[C@@H]1O)P(=O)(O)O [Example 69, ((R)-2-(((2R,3S,4R,5R)-5-(6-chloro-4-(cyclopentylamino)-1H-pyrazolo[3,4-d]pyrimidin-1-yl)-3,4-dihydroxytetrahydrofuran-2-yl)methoxy)-1-methoxypropan-2-yl)phosphonic acid] | ≤ 100 nM |
| O=P(O)(O)COC[C@H]1O[C@@H](n2nnc3c(NCC4CCC4)cc(Cl)nc32)[C@H](O)[C@@H]1O [Example 24, ((((2R,3S,4R,5R)-5-(5-chloro-7-((cyclobutylmethyl)amino)-3H-[1,2,3]triazolo[4,5-b]pyridin-3-yl)-3,4-dihydroxytetrahydrofuran-2-yl)methoxy)methyl)phosphonic acid] | ≤ 100 nM |
| O=P(O)(O)COC[C@H]1O[C@@H](n2nnc3c(NC4CCCC4)nc(Cl)cc32)[C@H](O)[C@@H]1O [Example 20, ((((2R,3S,4R,5R)-5-(6-chloro-4-(cyclopentylamino)-1H-[1,2,3]triazolo[4,5-c]pyridin-1-yl)-3,4-dihydroxytetrahydrofuran-2-yl)methoxy)methyl)phosphonic acid] | 100 to 1000 nM |
| COCC(C)(OC[C@H]1O[C@@H](n2ncc3c(NCC4CC4)nc(Cl)nc32)[C@H](O)[C@@H]1O)P(=O)(O)O (stereo partly drawn) [Example 79, (2-(((2R,3S,4R,5R)-5-(6-chloro-4-((cyclopropylmethyl)amino)-1H-pyrazolo[3,4-d]pyrimidin-1-yl)-3,4-dihydroxytetrahydrofuran-2-yl)methoxy)-1-methoxypropan-2-yl)phosphonic acid] | ≤ 100 nM |
| C[C@H](O)[C@@H](OC[C@H]1O[C@@H](n2ncc3c(NC4CCCC4)nc(Cl)nc32)[C@H](O)[C@@H]1O)P(=O)(O)O [Example 11, ((1S,2S)-1-(((2R,3S,4R,5R)-5-(6-chloro-4-(cyclopentylamino)-1H-pyrazolo[3,4-d]pyrimidin-1-yl)-3,4-dihydroxytetrahydrofuran-2-yl)methoxy)-2-hydroxypropyl)phosphonic acid] | ≤ 100 nM |
| O=P(O)(O)COC[C@H]1O[C@@H](n2nnc3c(NCC4CC4)cc(Cl)nc32)[C@H](O)[C@@H]1O [Example 21, ((((2R,3S,4R,5R)-5-(5-chloro-7-((cyclopropylmethyl)amino)-3H-[1,2,3]triazolo[4,5-b]pyridin-3-yl)-3,4-dihydroxytetrahydrofuran-2-yl)methoxy)methyl)phosphonic acid] | ≤ 100 nM |
| CC(COCCO)(OC[C@H]1O[C@@H](n2ncc3c(NC4CCCC4)nc(Cl)nc32)[C@H](O)[C@@H]1O)P(=O)(O)O (stereo partly drawn) [Example 85, (2-(((2R,3S,4R,5R)-5-(6-Chloro-4-(cyclopentylamino)-1H-pyrazolo[3,4-d]pyrimidin-1-yl)-3,4-dihydroxytetrahydrofuran-2-yl)methoxy)-1-(2-hydroxyethoxy)propan-2-yl)phosphonic acid] | ≤ 100 nM |
| O=P(O)(O)C(CO)OC[C@H]1O[C@@H](n2nnc3c(NC4CCCC4)cc(Cl)nc32)[C@H](O)[C@@H]1O (stereo partly drawn) [Example 60, (1-(((2R,3S,4R,5R)-5-(5-chloro-7-(cyclopentylamino)-3H-[1,2,3]triazolo[4,5-b]pyridin-3-yl)-3,4-dihydroxytetrahydrofuran-2-yl)methoxy)-2-hydroxyethyl)phosphonic acid] | ≤ 100 nM |
| COCC(C)(OC[C@@H]1C[C@@H](O)[C@H](n2ncc3c(NC4CCCC4)nc(Cl)nc32)O1)P(=O)(O)O (stereo partly drawn) [Example 70, (2-(((2S,4R,5R)-5-(6-chloro-4-(cyclopentylamino)-1H-pyrazolo[3,4-d]pyrimidin-1-yl)-4-hydroxytetrahydrofuran-2-yl)methoxy)-1-methoxypropan-2-yl)phosphonic acid] | 100 to 1000 nM |
| O=P(O)(O)C(CO)(COC1CCC1)OC[C@H]1O[C@@H](n2ncc3c(NC4CCCC4)nc(Cl)nc32)[C@H](O)[C@@H]1O (mixture of isomers) [Example 163, rac-(2-(((2R,3S,4R,5R)-5-(6-chloro-4-(cyclopentylamino)-1H-pyrazolo[3,4-d]pyrimidin-1-yl)-3,4-dihydroxytetrahydrofuran-2-yl)methoxy)-1-cyclobutoxy-3-hydroxypropan-2-yl)phosphonic acid] | ≤ 100 nM |
| O=P(O)(O)C(CO)OC[C@H]1O[C@@H](n2cnc3c(NC4CCCC4)nc(Cl)nc32)[C@H](O)[C@@H]1O (stereo partly drawn) [Example 75, (1-(((2R,3S,4R,5R)-5-(2-chloro-6-(cyclopentylamino)-9H-purin-9-yl)-3,4-dihydroxytetrahydrofuran-2-yl)methoxy)-2-hydroxyethyl)phosphonic acid] | ≤ 100 nM |
| O=P(O)(O)C(CCO)S(=O)(=O)C[C@H]1O[C@@H](n2ncc3c(NC4CCCC4)nc(Cl)nc32)[C@H](O)[C@@H]1O (stereo partly drawn) [Example 34, (1-((((2S,3S,4R,5R)-5-(6-chloro-4-(cyclopentylamino)-1H-pyrazolo[3,4-d]pyrimidin-1-yl)-3,4-dihydroxytetrahydrofuran-2-yl)methyl)sulfonyl)-3-hydroxypropyl)phosphonic acid] | 100 to 1000 nM |

The remaining lines, values ahead:

| IC50 | SMILES |
| --- | --- |
| ≤ 100 nM | O=P(O)(O)C(CO)(COCC(F)(F)F)OC[C@H]1O[C@@H](n2ncc3c(NC4CCCC4)nc(Cl)nc32)[C@H](O)[C@@H]1O (mixture of isomers) [Example 208, rac-(2-(((2R,3S,4R,5R)-5-(6-chloro-4-(cyclopentylamino)-1H-pyrazolo[3,4-d]pyrimidin-1-yl)-3,4-dihydroxytetrahydrofuran-2-yl)methoxy)-1-hydroxy-3-(2,2,2-trifluoroethoxy)propan-2-yl)phosphonic acid] |
| ≤ 100 nM | O=P(O)(O)[C@@](CO)(COCC1CC1)OC[C@H]1O[C@@H](n2ncc3c(NC4CCCC4)nc(Cl)nc32)[C@H](O)[C@@H]1O (racemic) [Example 171, rac-((R)-2-(((2S,3R,4S,5S)-5-(6-chloro-4-(cyclopentylamino)-1H-pyrazolo[3,4-d]pyrimidin-1-yl)-3,4-dihydroxytetrahydrofuran-2-yl)methoxy)-1-(cyclopropylmethoxy)-3-hydroxypropan-2-yl)phosphonic acid] |
| ≤ 100 nM | C[C@@H]1CCC[C@@H]1Nc1nc(Cl)nc2c1cnn2[C@@H]1O[C@H](COC(CO)(CO)P(=O)(O)O)[C@@H](O)[C@H]1O (racemic) [Example 228, rac-(2-(((2R,3S,4R,5R)-5-(6-chloro-4-(((1S,2R)-2-methylcyclopentyl)amino)-1H-pyrazolo[3,4-d]pyrimidin-1-yl)-3,4-dihydroxytetrahydrofuran-2-yl)methoxy)-1,3-dihydroxypropan-2-yl)phosphonic acid] |
| ≤ 100 nM | NC(=O)OCC(CO)(OC[C@H]1O[C@@H](n2ncc3c(NC4CCCC4)nc(Cl)nc32)[C@H](O)[C@@H]1O)P(=O)(O)O (mixture of isomers) [Example 178, rac-(1-(carbamoyloxy)-2-(((2R,3S,4R,5R)-5-(6-chloro-4-(cyclopentylamino)-1H-pyrazolo[3,4-d]pyrimidin-1-yl)-3,4-dihydroxytetrahydrofuran-2-yl)methoxy)-3-hydroxypropan-2-yl)phosphonic acid] |
| ≤ 100 nM | CCOCC(C)(OC[C@H]1O[C@@H](n2ncc3c(NC4CCCC4)nc(Cl)nc32)[C@H](O)[C@@H]1O)P(=O)(O)O (stereo partly drawn) [Example 156, (2-(((2R,3S,4R,5R)-5-(6-chloro-4-(cyclopentylamino)-1H-pyrazolo[3,4-d]pyrimidin-1-yl)-3,4-dihydroxytetrahydrofuran-2-yl)methoxy)-1-ethoxypropan-2-yl)phosphonic acid] |
| ≤ 100 nM | O=P(O)(O)C(CO)(Cc1nn[nH]n1)OC[C@H]1O[C@@H](n2ncc3c(NCC4CC4)nc(Cl)nc32)[C@H](O)[C@@H]1O (mixture of isomers) [Example 184, rac-(2-(((2R,3S,4R,5R)-5-(6-chloro-4-((cyclopropylmethyl)amino)-1H-pyrazolo[3,4-d]pyrimidin-1-yl)-3,4-dihydroxytetrahydrofuran-2-yl)methoxy)-1-hydroxy-3-(2H-tetrazol-5-yl)propan-2-yl)phosphonic acid] |
| ≤ 100 nM | O=P(O)(O)[C@](CO)(COCc1ccccc1)OC[C@H]1O[C@@H](n2ncc3c(NC4CCCC4)nc(Cl)nc32)[C@H](O)[C@@H]1O (racemic) [Example 179, rac-((R)-1-(benzyloxy)-2-(((2R,3S,4R,5R)-5-(6-chloro-4-(cyclopentylamino)-1H-pyrazolo[3,4-d]pyrimidin-1-yl)-3,4-dihydroxytetrahydrofuran-2-yl)methoxy)-3-hydroxypropan-2-yl)phosphonic acid] |
| ≤ 100 nM | COC[C@](CO)(OC[C@H]1O[C@@H](n2ncc3c(NC4CCCC4)nc(Cl)nc32)[C@H](O)[C@@H]1O)P(=O)(O)O [Example 150, ((R)-2-(((2R,3S,4R,5R)-5-(6-chloro-4-(cyclopentylamino)-1H-pyrazolo[3,4-d]pyrimidin-1-yl)-3,4-dihydroxytetrahydrofuran-2-yl)methoxy)-1-hydroxy-3-methoxypropan-2-yl)phosphonic acid] |
| ≤ 100 nM | CC1(Nc2nc(Cl)nc3c2cnn3[C@@H]2O[C@H](CO[C@](C)(CO)P(=O)(O)O)[C@@H](O)[C@H]2O)CCCC1 [Example 106, ((S)-2-(((2R,3S,4R,5R)-5-(6-chloro-4-((1-methylcyclopentyl)amino)-1H-pyrazolo[3,4-d]pyrimidin-1-yl)-3,4-dihydroxytetrahydrofuran-2-yl)methoxy)-1-hydroxypropan-2-yl)phosphonic acid] |
| ≤ 100 nM | CCOCC(COCC)(OC[C@H]1O[C@@H](n2ncc3c(NC4CCCC4)nc(Cl)nc32)[C@H](O)[C@@H]1O)P(=O)(O)O (racemic) [Example 185, rac-(2-(((2R,3S,4R,5R)-5-(6-chloro-4-(cyclopentylamino)-1H-pyrazolo[3,4-d]pyrimidin-1-yl)-3,4-dihydroxytetrahydrofuran-2-yl)methoxy)-1,3-diethoxypropan-2-yl)phosphonic acid] |
